Consider 1 molecule from paper PMC11207005 (Pharmaceuticals, 2024).

For data set [1] the following is noted: cited from earlier work.
The nature of data set [2]: Dissolution test, USP apparatus type II. It is filed as physicochemical. Particulars: pH 6.8 phosphate buffer, 37 °C, 100 rpm, powder. Here is the method: In the following circumstances, the dissolution test was carried out on the prepared ALB capsules and the complex-containing ones. The dissolution medium was a USP type II (paddle type) and 900 mL of pH 6.8 phosphate buffer at 37 ± 1 °C with the rotation speed fixed at […]. At selected time points (10, 20, …, 80), 2 mL samples of dissolution medium were withdrawn and replaced with a fresh buffer. Times start from 0-time points for powder dissolution and end after 20 min (average time to dissolve the capsule shell).

For data set [3] the following is noted: cited from earlier work. This is another data set of the same source.
Data set [4] can be described thus: Phase solubility study of ALB with βCD (stability constant). Particulars: distilled water, 25 °C. It is filed as physicochemical. How it is done:
(§1) Phase solubility tests were conducted in distilled water following the procedure outlined in the Higuchi and Connors technique. […] Samples were placed in the water bath (25 °C/2 days/50 rpm) to attain equilibrium. Samples of 3 mL were withdrawn and filtered through a 0.45 μm nylon membrane filter. The filtrate (1 mL) was diluted appropriately with methanol, stirred for one hour (200 rpm), and assayed at 340 nm. The concentrations used were 2, 4, 10, 15, and 20 mmol/L for both βCD and HPβCD.

Data set [5] in a line: Phase solubility study of ALB with HPβCD (stability constant). It is filed as physicochemical. Particulars: distilled water, 25 °C. Here is the method:
as §1

Data set [6] is described as follows: Phase solubility study: solubility of pure ALB in distilled water. It is filed as physicochemical. Particulars: thermodynamic from solid, 25 °C. How it is done: as §1
Data set [7] is described as follows: Oral pharmacokinetic (bioavailability) study in rats, non-compartmental analysis. It is filed as in vivo, Wistar rats. How it is done:
The Shimadzu SCL-10A VP system control (Kyoto, Japan) has a mass detector (LCMS2010A) from Shimadzu Kylimatu, Japan. The mobile phase comprised acetonitrile–deionized water–formic acid (70: 30: 0.1%, v/v). Rosuvastatin was utilized as an internal standard. The injection volume was 10 µL; the flow rate was […]; the autosampler temperature was 5 °C; the column temperature was 25 °C; and the column was ACE (C18; 4.6 × […]) with particle size of 5.0 µm.
The samples were prepared for injection into the instrument as follows: Samples (including known/unknown spiked plasma and samples) were obtained from the deep freezer, followed by a period of room-temperature thaw. Later, a plasma pipet was performed on the samples after they were shaken to form a mixture. A total of 270 µL of blank plasma per 300 µL of spiked plasma were pipetted into the labeled test tubes, and 30 µL of serial solutions into blank plasma were added. Then, 50 µL of rosuvastatin (IS) working solutions were added. Then, the samples were vortexed for roughly 10 s. A total of 700 µL of acetonitrile (precipitation solutions) were added and vortexed again for 2.0 min, then centrifugated at 4000 rpm for roughly five min at room temperature. After that, 200 µL from the supernatant was transferred to the HPLC vials inserts. Finally, the vials were capped and transferred into the autosampler racks.
The study protocol was validated and approved by the Institutional Review Board (IRB) of Applied Science University (ASU) (Decision no. 6/2021–2022). The preclinical investigation was conducted at the Animal House of ASU as a combined project. A total of 12 Wistar rats were prepared for this study and divided into two groups, with each group containing 6 rats. The average weight of the animals was 200 g ± 15 g, aged four weeks, and they were all males.
The animals for the experiment were prepared by depriving them of food (for about twelve hours) apart from full access to water, and they were identified by a sign mark on the tail. After the dosing of ALB, samples were retrieved from the rat’s tail. After, the tail was warmed for half a minute via a hot pad before every sampling period. […] The samples were kept in heparinized Eppendorf tubes, centrifugated to obtain the plasma, frozen at −25 °C, and kept until the time of analysis.
The plasma level–time profile of ALB was obtained using Microsoft Excel. Two profiles, F1 in G1 and F2 in G2, were plotted. […] ANOVA was applied to detect significant parameter differences using a […].

The mark [8] stands for this setting: male, Wistar, rat, plasma, po, 15 mg/kg.

Regarding `CCc1cc2c(cc1N1CCC(N3CCOCC3)CC1)C(C)(C)c1[nH]c3cc(C#N)ccc3c1C2=O` [ALB, Alectinib], the Oral bioavailability entry in data set [1] is “around 37%”. In addition, the “T30 (amount of ALB released in 30 min)” value in data set [2] was 18%. Also, the “log partition coefficient (log p)” value in data set [3] is reported as 5.2. Also, the “Ks (stability constant)” value in data set [4] was determined as 500 M⁻¹; in data set [5], 1836 M⁻¹. The figures for the solubility at 2 days in data set [6] and in data set [6] (approximate) were 2 µM and around 1 µg/mL, respectively. Moreover, the “Plasma concentration of ALB at 72 h” value in data set [7] (Wistar rats, F1 and F2, LLOQ 15 ng/mL) is “below the LLOQ”. This molecule also showed an AUC(0-inf) in data set [7] (setting [8]) of 7280 ± 306 ng·h/mL. The molecule also displayed a Cmax in data set [7] (setting [8]) of 240 ± 26.9 ng/mL. Further, the time to peak (Tmax) in data set [7] (setting [8]) stood at 7.33 ± 1.03 h. In addition, the AUC(0-t) in data set [7] (male, Wistar, rat, plasma, po, 15 mg/kg, read-out: AUC0-48 (AUC-48)) is 5950 ± 265 ng·h/mL. Also, the k el in data set [7] (male, Wistar, rat, plasma, po, 15 mg/kg, read-out: Kel (elimination rate constant) (converted)) was 1.25e-05 s⁻¹.

As a reminder, the solubility is how much of the substance goes into solution per volume. The low end stands for little dissolved substance, the high end for much dissolved substance. As a reminder, the AUC(0-inf) is total exposure, with the tail of the curve extrapolated. In general, Cmax refers to the maximum level reached in the sampled fluid or tissue. What is called Tmax is the time at which the peak concentration occurs.
